Numbered stars: 1 amine (or outer) side, 2 acyl side, 3 side chain; on linkers, the order of the positions; unused ones are H or OH. Bridge positions count the residues as written; N and C are the ends. Side chains are listed from the residue outwards. Peptide text beside a SMILES is read from it. * marks the point of attachment. C20 diacid = O=C(O)CCCCCCCCCCCCCCCCCCC(=O)*; γGlu = O=C(O)[C@H](CCC(=O)[*:2])N[*:1]; AEEA = NCCOCCOCC(=O)O
How the values were obtained:
[1] = molecular target: T1, human amylin 3(a) receptor (human calcitonin receptor + RAMP-3) in BHK570 cells (Homo sapiens, UniProt O60896+P30988); test: ASSAY (II)a functional assay, human amylin receptor (CRE luciferase); assay type: cell-based
T1 construct: expressed in transfected cells
Summary of the method: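 Functional agonism was measured by CRE-luciferase reporter luminescence in BHK cells bearing calcitonin receptor, or calcitonin receptor plus RAMP-3 as the amylin 3(a) receptor. Stimulation lasted 3 hours at 37° C.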

[2] = molecular target: T2, human amylin receptor (membranes from Amylin 3(a)/CRE-luc cells) (Homo sapiens, UniProt O60896+P30988); test: ASSAY (V) binding to the human amylin receptor (SPA, 125I-rat amylin);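 further: competition binding of cell membranes (35 ng/µL) mixed with SPA beads in 384-well plates at 40 µL total volume, read by scintillation counting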
T2 construct: expressed in transfected cells
T2 sequence (P30988 25-474): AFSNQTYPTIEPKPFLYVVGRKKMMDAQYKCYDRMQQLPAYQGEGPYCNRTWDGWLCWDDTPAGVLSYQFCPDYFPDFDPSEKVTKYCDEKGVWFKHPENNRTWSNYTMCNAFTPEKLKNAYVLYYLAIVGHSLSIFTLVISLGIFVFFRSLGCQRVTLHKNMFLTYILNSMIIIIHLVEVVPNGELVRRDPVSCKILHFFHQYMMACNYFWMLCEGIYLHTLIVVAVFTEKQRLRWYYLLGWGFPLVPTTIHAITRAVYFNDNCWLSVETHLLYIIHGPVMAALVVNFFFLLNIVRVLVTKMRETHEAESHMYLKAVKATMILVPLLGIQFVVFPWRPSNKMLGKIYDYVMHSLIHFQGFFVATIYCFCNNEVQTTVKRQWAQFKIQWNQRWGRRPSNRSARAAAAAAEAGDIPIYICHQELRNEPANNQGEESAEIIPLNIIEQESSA
T2 sequence (O60896 24-148 partner): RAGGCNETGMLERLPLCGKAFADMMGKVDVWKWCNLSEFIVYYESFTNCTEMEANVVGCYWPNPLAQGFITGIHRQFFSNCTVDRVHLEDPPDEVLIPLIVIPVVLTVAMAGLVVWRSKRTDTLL

[3] = hCTR funct. EC50 divided by hAmylin-R funct. EC50
[4] = human functional selectivity: hCTR funct. EC50 / hAmylin-R funct. EC50
[5] = Table 5, selectivity, hCTR bind IC50 / hAmylin-R bind IC50
[6] = Table 5a, selectivity, hCTR bind IC50 / hAmylin-R bind IC50
[7] = Table 5b, selectivity, hCTR bind IC50 / hAmylin-R bind IC50
[8] = Table 5c, selectivity, hCTR bind IC50 / hAmylin-R bind IC50
[9] = Table 7, human binding selectivity, included for comparison
[10] = Table 7a (preferred compounds), human binding selectivity, included for comparison
[11] = ratio of human calcitonin receptor binding IC50 to human amylin receptor binding IC50
[12] = hCTR funct. EC50 over hAmylin-R funct. EC50

SMILES: CC[C@H](C)[C@H](NC(=O)[C@H](C)NC(=O)CNC(=O)[C@H](Cc1ccccc1)NC(=O)[C@H](CC(N)=O)NC(=O)[C@@H]1CCCN1C(=O)[C@H](CO)NC(=O)[C@H](CO)NC(=O)[C@H](Cc1c[nH]cn1)NC(=O)[C@H](CCCNC(=N)N)NC(=O)[C@H](CC(C)C)NC(=O)[C@H](Cc1ccccc1)NC(=O)[C@H](CC(N)=O)NC(=O)[C@H](C)NC(=O)[C@H](CC(C)C)NC(=O)[C@H](CCCNC(=N)N)NC(=O)[C@H](CCC(N)=O)NC(=O)[C@@H](NC(=O)[C@H](C)NC(=O)[C@@H]1CSSC[C@H](NC(=O)[C@H](CCCCN)NC(=O)CC[C@H](NC(=O)CCCCCCCCCCCCCCCCCCC(=O)O)C(=O)O)C(=O)N[C@@H](CC(N)=O)C(=O)N[C@@H]([C@@H](C)O)C(=O)N[C@@H](C)C(=O)N[C@@H]([C@@H](C)O)C(=O)N1)[C@@H](C)O)C(=O)N1CCC[C@H]1C(=O)N[C@@H](CO)C(=O)N[C@@H](CO)C(=O)N[C@H](C(=O)N[C@@H](CC(N)=O)C(=O)N[C@H](C(=O)NCC(=O)N[C@@H](CO)C(=O)N[C@@H](CCCCN)C(=O)N[C@H](C(=O)N[C@@H](Cc1ccc(O)cc1)C(N)=O)[C@@H](C)O)C(C)C)[C@@H](C)O [Example 34]
- Ratio hCT/hAmylin funct. [1, 3]: 8.4
- Ratio hCT/hAmylin funct. [1, 4]: 8.4
- Ratio hCT/hAmylin binding [2, 5]: 64.4
- Ratio hCT/hAmylin binding [2, 6]: 64.4
- Ratio hCT/hAmylin binding [2, 7]: 64.4
- Ratio hCT/hAmylin binding [2, 8]: 64.4
- Ratio hCT/hAmylin binding [2, 9]: 64.4
- Ratio hCT/hAmylin binding [2, 10]: 64.4
- Ratio hCT/hAmylin binding [2, 11]: 64.4

SMILES: CC[C@H](C)[C@H](NC(=O)[C@H](C)NC(=O)CNC(=O)[C@H](Cc1ccccc1)NC(=O)[C@H](CC(N)=O)NC(=O)[C@@H]1CCCN1C(=O)[C@H](CO)NC(=O)[C@H](CO)NC(=O)[C@H](Cc1c[nH]cn1)NC(=O)[C@H](CCCNC(=N)N)NC(=O)[C@H](CC(C)C)NC(=O)[C@H](Cc1ccccc1)NC(=O)[C@H](CC(N)=O)NC(=O)[C@H](C)NC(=O)[C@H](CC(C)C)NC(=O)[C@H](CCCNC(=N)N)NC(=O)[C@H](CCC(N)=O)NC(=O)[C@@H](NC(=O)[C@H](C)NC(=O)[C@@H]1CSSC[C@H](NC(=O)[C@H](CCCCN)NC(=O)CC[C@H](NC(=O)CCCCCCCCCCCCCCCCCCC(=O)O)C(=O)O)C(=O)N[C@@H](CC(N)=O)C(=O)N[C@@H]([C@@H](C)O)C(=O)N[C@@H](C)C(=O)N[C@@H]([C@@H](C)O)C(=O)N1)[C@@H](C)O)C(=O)N1CCC[C@H]1C(=O)N[C@@H](CO)C(=O)N[C@@H](CO)C(=O)N[C@H](C(=O)N[C@@H](CC(N)=O)C(=O)N[C@H](C(=O)NCC(=O)N[C@@H](Cc1c[nH]cn1)C(=O)N[C@@H](CC(N)=O)C(=O)N[C@H](C(=O)N[C@@H](Cc1ccc(O)cc1)C(N)=O)[C@@H](C)O)C(C)C)[C@@H](C)O [Example 40]
- Ratio hCT/hAmylin funct. [1, 3]: 16.4
- Ratio hCT/hAmylin funct. [1, 12]: 16.4
- Ratio hCT/hAmylin funct. [1, 4]: 16.4
- Ratio hCT/hAmylin binding [2, 5]: 31.1
- Ratio hCT/hAmylin binding [2, 6]: 31.1
- Ratio hCT/hAmylin binding [2, 7]: 31.1
- Ratio hCT/hAmylin binding [2, 8]: 31.1
- Ratio hCT/hAmylin binding [2, 9]: 31.1
- Ratio hCT/hAmylin binding [2, 10]: 31.1
- Ratio hCT/hAmylin binding [2, 11]: 31.1

SMILES: CC[C@H](C)[C@H](NC(=O)[C@H](C)NC(=O)CNC(=O)[C@H](Cc1ccccc1)NC(=O)[C@H](CC(N)=O)NC(=O)[C@@H]1CCCN1C(=O)[C@H](CO)NC(=O)[C@H](CO)NC(=O)[C@H](Cc1c[nH]cn1)NC(=O)[C@H](CCCNC(=N)N)NC(=O)[C@H](CC(C)C)NC(=O)[C@H](Cc1ccccc1)NC(=O)[C@H](CC(N)=O)NC(=O)[C@H](C)NC(=O)[C@H](CC(C)C)NC(=O)[C@H](CCCNC(=N)N)NC(=O)[C@H](CCC(N)=O)NC(=O)[C@@H](NC(=O)[C@H](C)NC(=O)[C@@H]1CSSC[C@H](NC(=O)[C@H](CCCNC(=N)N)NC(=O)[C@@H](N)CCCCNC(=O)COCCOCCNC(=O)CC[C@H](NC(=O)CCCCCCCCCCCCCCCCCCC(=O)O)C(=O)O)C(=O)N[C@@H](CC(N)=O)C(=O)N[C@@H]([C@@H](C)O)C(=O)N[C@@H](C)C(=O)N[C@@H]([C@@H](C)O)C(=O)N1)[C@@H](C)O)C(=O)N1CCC[C@H]1C(=O)N[C@@H](CO)C(=O)N[C@@H](CO)C(=O)N[C@H](C(=O)N[C@@H](CC(N)=O)C(=O)N[C@H](C(=O)NCC(=O)N[C@@H](CO)C(=O)N[C@@H](Cc1c[nH]cn1)C(=O)N[C@H](C(=O)N[C@@H](Cc1ccc(O)cc1)C(N)=O)[C@@H](C)O)C(C)C)[C@@H](C)O [Example 45] (H-K([AEEA-γGlu-C20 diacid])RCNTATCATQRLANFLRHSSPNFGAIPSSTNVGSHTY-NH2; disulfide 3-8 (inferred))
- Ratio hCT/hAmylin funct. [1, 3]: 17.0
- Ratio hCT/hAmylin funct. [1, 12]: 17.0
- Ratio hCT/hAmylin funct. [1, 4]: 17.0
- Ratio hCT/hAmylin binding [2, 5]: 26.8
- Ratio hCT/hAmylin binding [2, 6]: 26.8
- Ratio hCT/hAmylin binding [2, 7]: 26.8
- Ratio hCT/hAmylin binding [2, 8]: 26.8
- Ratio hCT/hAmylin binding [2, 9]: 26.8
- Ratio hCT/hAmylin binding [2, 10]: 26.8
- Ratio hCT/hAmylin binding [2, 11]: 26.8

SMILES: CC[C@H](C)[C@H](NC(=O)[C@H](C)NC(=O)CNC(=O)[C@H](Cc1ccccc1)NC(=O)[C@H](CC(N)=O)NC(=O)[C@@H]1CCCN1C(=O)[C@H](CO)NC(=O)[C@H](CO)NC(=O)[C@H](Cc1c[nH]cn1)NC(=O)[C@H](CCCNC(=N)N)NC(=O)[C@H](CC(C)C)NC(=O)[C@H](Cc1ccccc1)NC(=O)[C@H](CC(N)=O)NC(=O)[C@H](C)NC(=O)[C@H](CC(C)C)NC(=O)[C@H](CCCNC(=N)N)NC(=O)[C@H](CCC(N)=O)NC(=O)[C@@H](NC(=O)[C@H](C)NC(=O)[C@@H]1CSSC[C@H](NC(=O)[C@H](CCCNC(=N)N)NC(=O)CNC(=O)CC[C@H](NC(=O)CCCCCCCCCCCCCCCCCCC(=O)O)C(=O)O)C(=O)N[C@@H](CC(N)=O)C(=O)N[C@@H]([C@@H](C)O)C(=O)N[C@@H](C)C(=O)N[C@@H]([C@@H](C)O)C(=O)N1)[C@@H](C)O)C(=O)N1CCC[C@H]1C(=O)N[C@@H](CO)C(=O)N[C@@H](CO)C(=O)N[C@H](C(=O)N[C@@H](CC(N)=O)C(=O)N[C@H](C(=O)NCC(=O)N[C@@H](CO)C(=O)N[C@@H](Cc1c[nH]cn1)C(=O)N[C@H](C(=O)N[C@@H](Cc1ccc(O)cc1)C(N)=O)[C@@H](C)O)C(C)C)[C@@H](C)O [Example 47] ({C20 diacid-γGlu}-GRCNTATCATQRLANFLRHSSPNFGAIPSSTNVGSHTY-NH2; disulfide 3-8)
- Ratio hCT/hAmylin funct. [1, 3]: 6.0
- Ratio hCT/hAmylin funct. [1, 12]: 6.0
- Ratio hCT/hAmylin funct. [1, 4]: 6.0
- Ratio hCT/hAmylin binding [2, 5]: 44.9
- Ratio hCT/hAmylin binding [2, 6]: 44.9
- Ratio hCT/hAmylin binding [2, 7]: 44.9
- Ratio hCT/hAmylin binding [2, 8]: 44.9
- Ratio hCT/hAmylin binding [2, 9]: 44.9
- Ratio hCT/hAmylin binding [2, 10]: 44.9
- Ratio hCT/hAmylin binding [2, 11]: 44.9

SMILES: CC[C@H](C)[C@H](NC(=O)[C@H](C)NC(=O)CNC(=O)[C@H](Cc1ccccc1)NC(=O)[C@H](CC(N)=O)NC(=O)[C@@H]1CCCN1C(=O)[C@H](CO)NC(=O)[C@H](CO)NC(=O)[C@H](Cc1c[nH]cn1)NC(=O)[C@H](CCCNC(=N)N)NC(=O)[C@H](CC(C)C)NC(=O)[C@H](Cc1ccccc1)NC(=O)[C@H](CC(N)=O)NC(=O)[C@H](C)NC(=O)[C@H](CC(C)C)NC(=O)[C@H](CCCNC(=N)N)NC(=O)[C@H](CCC(N)=O)NC(=O)[C@@H](NC(=O)[C@H](C)NC(=O)[C@@H]1CSSC[C@H](NC(=O)[C@@H](N)CCCCNC(=O)CC[C@H](NC(=O)CCCCCCCCCCCCCCCCCCC(=O)O)C(=O)O)C(=O)N[C@@H](CC(N)=O)C(=O)N[C@@H]([C@@H](C)O)C(=O)N[C@@H](C)C(=O)N[C@@H]([C@@H](C)O)C(=O)N1)[C@@H](C)O)C(=O)N1CCC[C@H]1C(=O)N[C@@H](CO)C(=O)N[C@@H](CO)C(=O)N[C@H](C(=O)N[C@@H](CC(N)=O)C(=O)N[C@H](C(=O)NCC(=O)N[C@@H](CO)C(=O)N[C@@H](Cc1c[nH]cn1)C(=O)N[C@H](C(=O)N[C@@H](Cc1ccc(O)cc1)C(N)=O)[C@@H](C)O)C(C)C)[C@@H](C)O [Example 60]
- Ratio hCT/hAmylin funct. [1, 3]: 15.3
- Ratio hCT/hAmylin funct. [1, 12]: 15.3
- Ratio hCT/hAmylin funct. [1, 4]: 15.3
- Ratio hCT/hAmylin binding [2, 5]: 45.2
- Ratio hCT/hAmylin binding [2, 6]: 45.2
- Ratio hCT/hAmylin binding [2, 7]: 45.2
- Ratio hCT/hAmylin binding [2, 8]: 45.2
- Ratio hCT/hAmylin binding [2, 9]: 45.2
- Ratio hCT/hAmylin binding [2, 10]: 45.2
- Ratio hCT/hAmylin binding [2, 11]: 45.2

Source: patent US9023789B2, “Amylin analogs and pharmaceutical compositions thereof” (Novo Nordisk A/S, priority 2012, dated 2015)
